Target: T1, PRMT5-MEP50 enzyme complex (Homo sapiens, UniProt O14744)
T1 construct: purchased BPS Bioscience (USA) 51045
Experiment: In vitro PRMT5 enzyme activity assay (methylation of histone H4 arginine H4R3, ELISA absorbance at 450 nm)
Type: biochemical
Settings: S-adenosylmethionine, histone H4 peptide, 2 hours at room temperature, 8 points 10 μM to 0.128 nM
How it was run: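 Human PRMT5-MEP50 (5 μg/mL working stock) with 2 μM SAM stock on histone H4 (1-20) peptide-coated plates, compound 8-point 1:5 series from 10 μM, 2 h at room temperature. H4R3 methylation detected by antibody/HRP ELISA, absorbance 450 nm; IC50 calculated.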

T1 sequence (O14744 2-637 limits assumed): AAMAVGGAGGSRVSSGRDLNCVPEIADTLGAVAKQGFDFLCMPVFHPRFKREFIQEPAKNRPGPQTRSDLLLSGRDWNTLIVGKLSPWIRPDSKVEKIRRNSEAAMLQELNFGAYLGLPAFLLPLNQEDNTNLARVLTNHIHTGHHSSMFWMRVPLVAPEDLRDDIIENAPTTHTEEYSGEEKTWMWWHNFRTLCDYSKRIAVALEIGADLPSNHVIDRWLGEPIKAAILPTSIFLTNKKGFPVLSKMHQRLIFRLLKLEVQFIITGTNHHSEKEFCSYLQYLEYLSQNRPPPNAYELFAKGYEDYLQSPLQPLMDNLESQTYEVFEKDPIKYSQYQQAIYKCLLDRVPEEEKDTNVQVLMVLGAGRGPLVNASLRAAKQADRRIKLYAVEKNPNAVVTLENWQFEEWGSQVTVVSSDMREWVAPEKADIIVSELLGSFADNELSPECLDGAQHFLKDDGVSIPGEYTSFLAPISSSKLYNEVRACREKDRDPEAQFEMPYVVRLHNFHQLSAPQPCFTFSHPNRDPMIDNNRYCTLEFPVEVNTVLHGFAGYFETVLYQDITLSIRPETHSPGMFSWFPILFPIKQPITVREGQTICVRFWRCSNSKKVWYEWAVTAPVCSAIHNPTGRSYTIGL
T1 sequence (Q9BQA1 2-342 partner limits assumed): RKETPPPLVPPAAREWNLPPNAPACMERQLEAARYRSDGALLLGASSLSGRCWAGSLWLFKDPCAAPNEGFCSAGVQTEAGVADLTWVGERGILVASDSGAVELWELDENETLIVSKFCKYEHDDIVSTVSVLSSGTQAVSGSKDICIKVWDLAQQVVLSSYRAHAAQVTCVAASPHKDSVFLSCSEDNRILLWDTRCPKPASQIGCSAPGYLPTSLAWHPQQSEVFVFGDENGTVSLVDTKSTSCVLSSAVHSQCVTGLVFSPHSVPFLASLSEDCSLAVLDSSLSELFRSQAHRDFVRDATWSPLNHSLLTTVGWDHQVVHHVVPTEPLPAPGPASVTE

| SMILES | IC50 [nM] |
| --- | --- |
| C[C@@H]1CN(c2ccc3c(c2)CCN(C[C@H](O)CN2CCc4ccccc4C2)C3=O)C[C@H](C)O1 [Example 14, 2-[(2R)-3-(3,4-dihydro-1H-isoquinolin-2-yl)-2-hydroxy-propyl]-6-[(2R,6S)-2,6-dimethylmorpholin-4-yl]-3,4-dihydroisoquinolin-1-one] | 100 to 1000 |
| O=C1c2ccc(N3CCN(C4COC4)CC3)cc2CCN1C[C@H](O)CN1CCc2ccccc2C1 [Example 121, 2-[(2R)-3-(3,4-dihydro-1H-isoquinolin-2-yl)-2-hydroxy-propyl]-6-[4-(oxetan-3-yl)piperazin-1-yl]-3,4-dihydroisoquinolin-1-one] | 100 to 1000 |
| O=C1c2ccc(N3CCN4C(=O)OCC4C3)cc2CCN1C[C@H](O)CN1CCc2ccccc2C1 (stereo partly drawn) [Example 94, 7-[2-[(2R)-3-(3,4-dihydro-1H-isoquinolin-2-yl)-2-hydroxy-propyl]-1-oxo-3,4-dihydroisoquinolin-6-yl]-5,6,8,8a-tetrahydro-1H-oxazolo[3,4-a]pyrazin-3-one] | 1 to 100 |
| CS(=O)(=O)N1CCN(c2ccc3c(c2)CCN(C[C@H](O)CN2CCc4ccccc4C2)C3=O)CC1 [Example 59, 2-[(2R)-3-(3,4-dihydro-1H-isoquinolin-2-yl)-2-hydroxy-propyl]-6-(4-methylsulfonylpiperazin-1-yl)-3,4-dihydroisoquinolin-1-one] | 100 to 1000 |
| O=C1c2ccc(NC3CCOC3)cc2CCN1C[C@H](O)CN1CCc2ccccc2C1 (stereo partly drawn) [Example 50, 2-[(2R)-3-(3,4-dihydro-1H-isoquinolin-2-yl)-2-hydroxy-propyl]-6-(tetrahydrofuran-3-ylamino)-3,4-dihydroisoquinolin-1-one] | 100 to 1000 |
| O=C1c2ccc(N3CCN(C(=O)C(F)(F)F)CC3)cc2CCN1C[C@H](O)CN1CCc2ccccc2C1 [Example 62, 2-[(2R)-3-(3,4-dihydro-1H-isoquinolin-2-yl)-2-hydroxy-propyl]-6-[4-(2,2,2-trifluoroacetyl)piperazin-1-yl]-3,4-dihydroisoquinolin-1-one] | 1 to 100 |
| O=C1c2ccc(C#CCO)cc2CCN1C[C@H](O)CN1CCc2ccccc2C1 [Example 137, 2-[(2R)-3-(3,4-dihydro-1H-isoquinolin-2-yl)-2-hydroxypropyl]-6-(3-hydroxyprop-1-ynyl)-3,4-dihydroisoquinolin-1-one] | 100 to 1000 |
| CN(C)C1CCN(c2ccc3c(c2)C(C)(C)CN(C[C@H](O)CN2CCc4ccccc4C2)C3=O)CC1 [Example 111, 2-[(2R)-3-(3,4-dihydro-1H-isoquinolin-2-yl)-2-hydroxy-propyl]-6-[4-(dimethylamino)-1-piperidyl]-4,4-dimethyl-3H-isoquinolin-1-one] | 100 to 1000 |
| O=C1c2ccc(N3CCS(=O)(=O)CC3)cc2CCN1C[C@H](O)CN1CCc2ccccc2C1 [Example 49, 2-[(2R)-3-(3,4-dihydro-1H-isoquinolin-2-yl)-2-hydroxy-propyl]-6-(1,1-dioxo-1,4-thiazinan-4-yl)-3,4-dihydroisoquinolin-1-one] | 1 to 100 |
| O=C1c2ccc(N3CCNCC3)cc2CCN1C[C@H](O)CN1CCc2ccccc2C1 [Example 58, 2-[(2R)-3-(3,4-dihydro-1H-isoquinolin-2-yl)-2-hydroxy-propyl]-6-piperazin-1-yl-3,4-dihydroisoquinolin-1-one] | 1 to 100 |

Next, values leading:

| IC50 [nM] | SMILES |
| --- | --- |
| 100 to 1000 | CN1CCC(Oc2ccc3c(c2)CCN(C[C@H](O)CN2CCc4ccccc4C2)C3=O)CC1 [Example 135, 2-[(2R)-3-(3,4-dihydro-1H-isoquinolin-2-yl)-2-hydroxy-propyl]-6-[(1-methyl-4-piperidyl)oxy]-3,4-dihydroisoquinolin-1-one] |
| 1 to 100 | O=C1c2ccc(N3CCOCC3)cc2CCN1C[C@H](O)CN1CCc2ccccc2C1 [Example 4, 2-[(2R)-3-(3,4-dihydro-1H-isoquinolin-2-yl)-2-hydroxy-propyl]-6-morpholino-3,4-dihydroisoquinoline-1-one] |
| 1 to 100 | O=CN1CCN(c2ccc3c(c2)CCN(C[C@H](O)CN2CCc4ccccc4C2)C3=O)CC1 [Example 87, 4-[2-[(2R)-3-(3,4-dihydro-1H-isoquinolin-2-yl)-2-hydroxy-propyl]-1-oxo-3,4-dihydroisoquinolin-6-yl]piperazine-1-carbaldehyde] |
| 100 to 1000 | CC(=O)NC1CCN(c2ccc3c(c2)CCN(C[C@H](O)CN2CCc4ccccc4C2)C3=O)CC1 [Example 92, N-[1-[2-[(2R)-3-(3,4-dihydro-1H-isoquinolin-2-yl)-2-hydroxy-propyl]-1-oxo-3,4-dihydroisoquinolin-6-yl]-4-piperidyl]acetamide] |
| 100 to 1000 | CN(C)C1CCCN(c2ccc3c(c2)CCN(C[C@H](O)CN2CCc4ccccc4C2)C3=O)C1 (stereo partly drawn) [Example 116, 2-[(2R)-3-(3,4-dihydro-1H-isoquinolin-2-yl)-2-hydroxy-propyl]-6-[3-(dimethylamino)-1-piperidyl]-3,4-dihydroisoquinolin-1-one] |
| 100 to 1000 | CN(C)C(=O)C1CCN(c2ccc3c(c2)CCN(C[C@H](O)CN2CCc4ccccc4C2)C3=O)CC1 [Example 97, 1-[2-[(2R)-3-(3,4-dihydro-1H-isoquinolin-2-yl)-2-hydroxy-propyl]-1-oxo-3,4-dihydroisoquinolin-6-yl]-N,N-dimethyl-piperidine-4-carboxamide] |
| 1 to 100 | O=C(CN1CCOCC1)Nc1ccc2c(c1)CCN(C[C@H](O)CN1CCc3ccccc3C1)C2=O [Example 33, N-[2-[(2R)-3-(3,4-dihydro-1H-isoquinolin-2-yl)-2-hydroxy-propyl]-1-oxo-3,4-dihydroisoquinolin-6-yl]-2-morpholino-acetamide] |
| 1 to 100 | C[C@@H]1CN(c2ccc3c(c2)CCN(C[C@H](O)CN2CCc4ccccc4C2)C3=O)CCO1 [Example 16, 2-[(2R)-3-(3,4-dihydro-1H-isoquinolin-2-yl)-2-hydroxy-propyl]-6-[(2R)-2-methylmorpholin-4-yl]-3,4-dihydroisoquinolin-1-one] |
| 100 to 1000 | CC(=O)N1CCN(c2ccc3c(c2)CCN(C[C@H](O)CN2CCc4ccccc4C2)C3=O)CC1 [Example 52, 6-(4-acetylpiperazin-1-yl)-2-[(2R)-3-(3,4-dihydro-1H-isoquinolin-2-yl)-2-hydroxy-propyl]-3,4-dihydroisoquinolin-1-one] |
| 1 to 100 | CC(C)(C)OC(=O)N1CCN(c2ccc3c(c2)CCN(C[C@H](O)CN2CCc4ccccc4C2)C3=O)CC1 [Example 53, tert-butyl 4-[2-[(2R)-3-(3,4-dihydro-1H-isoquinolin-2-yl)-2-hydroxy-propyl]-1-oxo-3,4-dihydroisoquinolin-6-yl]piperazine-1-carboxylate] |
| 100 to 1000 | CC(C)(C)C(=O)Nc1ccc2c(c1)CCN(C[C@H](O)CN1CCc3ccccc3C1)C2=O [Example 19, N-[2-[(2R)-3-(3,4-dihydro-1H-isoquinolin-2-yl)-2-hydroxy-propyl]-1-oxo-3,4-dihydroisoquinolin-6-yl]-2,2-dimethylpropanamide] |

System: SDMA levels in the tumor
Experiment: Test for in vivo target inhibitory activity (SDMA levels in U87MG tumor)
Settings: U87MG tumor cells implanted subcutaneously in nude mice, oral 25 or 50 mg/kg 1-2 times daily for one week
Protocol: Test for In Vivo Target Inhibitory Activity
After U87MG tumor cells were implanted subcutaneously in nude mice, a PRMT5 inhibitor was administered orally (25 or 50 mg/kg) 1-2 times daily for one week, and then the degree to which SDMA levels in the tumor decreased was measured.
Reagents: Bradford's solution (Catalog No. 500-0006) was purchased from Bio-rad (USA). SDMA antibody (Catalog No. 13222s) was purchased from Cell Signaling Technology (USA). SmD3 antibody (Catalog No. ap12451a) was purchased from Abgent (USA), and secondary antibody (Catalog No. ab6721) and TMB substrate (Catalog No. ab210902) were purchased from Abcam (UK).
Experimental procedure: The tumor tissues transplanted into the mice were excised, the cells were lysed, and then quantified with Bradford's solution. 5-10 μg of protein per sample was diluted with carbonate-bicarbonate buffer and dispensed into a 96-well plate and reacted at room temperature for 2 hours. After washing with phosphate buffered saline (PBST) containing 0.05% Tween-20 3 times, 200 μL of PBST containing 5% bovine serum albumin (BSA-PBST) was added and reacted at room temperature for 2 hours. After washing with PBST 3 times, the SDMA antibody and the SmD3 antibody were diluted in BSA-PBST, and 100 μL of each was dispensed onto the plate and reacted at 4° C. overnight. After washing with PBST 3 times the next day, 100 μL of the secondary antibody diluted in BSA-PBST was added and reacted at room temperature for 1 hour. After washing with PBST 3 times, 100 μL of TMB substrate was added and reacted at room temperature for 10-20 minutes, and 100 μL of 1N sulfuric acid solution was added to terminate the reaction. Then, the absorbance at 450 nm was measured to calculate the degree of SDMA inhibition by the compound. (+++: more than 70%, ++: more than 30% and 70% or less, +: 30% or less)

| SMILES | SDMA inhibition |
| --- | --- |
| CN1CCC(Oc2ccc3c(c2)CCN(C[C@H](O)CN2CCc4ccccc4C2)C3=O)CC1 [Example 135, 2-[(2R)-3-(3,4-dihydro-1H-isoquinolin-2-yl)-2-hydroxy-propyl]-6-[(1-methyl-4-piperidyl)oxy]-3,4-dihydroisoquinolin-1-one] | +++ (+++: more than 70%) |
| O=C1c2ccc(N3CCOCC3)cc2CCN1C[C@H](O)CN1CCc2ccccc2C1 [Example 4, 2-[(2R)-3-(3,4-dihydro-1H-isoquinolin-2-yl)-2-hydroxy-propyl]-6-morpholino-3,4-dihydroisoquinoline-1-one] | ++ (++: more than 30% and 70% or less) |
| C[C@@H]1CN(c2ccc3c(c2)CCN(C[C@H](O)CN2CCc4ccccc4C2)C3=O)C[C@H](C)O1 [Example 14, 2-[(2R)-3-(3,4-dihydro-1H-isoquinolin-2-yl)-2-hydroxy-propyl]-6-[(2R,6S)-2,6-dimethylmorpholin-4-yl]-3,4-dihydroisoquinolin-1-one] | +++ (+++: more than 70%) |
| O=CN1CCN(c2ccc3c(c2)CCN(C[C@H](O)CN2CCc4ccccc4C2)C3=O)CC1 [Example 87, 4-[2-[(2R)-3-(3,4-dihydro-1H-isoquinolin-2-yl)-2-hydroxy-propyl]-1-oxo-3,4-dihydroisoquinolin-6-yl]piperazine-1-carbaldehyde] | ++ (++: more than 30% and 70% or less) |

Source: patent publication US12331035B2, “Bicyclic compound and use thereof” (SK BIOPHARMACEUTICALS CO., LTD., priority 2019, dated 2025)
